Patent publication US11607414B2, “Small molecule inhibitors of EGFR and PI3K” (The Regents of the University of Michigan, priority 2014, dated 2023)

Assays:
[1] = biological target: PIK3CA (Homo sapiens, UniProt P42336); experiment: ADAPTA universal kinase assay, PIK3CA; assay type: biochemical
Protocol: Various compounds were tested for their ability to inhibit EGFR and PIK3CA. The assays determining inhibitions are given in Example 2 Assays-Z′-LYTE® and ADAPTA.
Enzyme: The ADAPTA universal kinase assay is a homogenous, fluorescent based immunoassay for the detection of ADP. In contrast to ATP depletion assays, the ADAPTA assay is extremely sensitive to ADP formation such that a majority of the signal change occurs in the first 10-20% conversion of ATP to ADP. This makes the ADAPTA universal kinase assay ideally suited for use with low activity kinases.
The principle of the ADAPTA universal kinase assay is outlined below. The assay itself can be divided into two phases: a kinase reaction phase, and an ADP detection phase. […]
ADP formation is determined by calculating the emission ratio from the assay well. The emission ratio is calculated by dividing the intensity of the tracer (acceptor) emission by the intensity of the Eu (donor) emission at 615 nm as shown in the equation below.
Adapta® Assay Conditions' • Test Compounds: The Test Compounds are screened in 1% DMSO (final) in the well. […] ATP Km apparent is previously determined using a radiometric assay except when no substrate is available in which case an Adapta® assay is conducted. • Detection Mix: The Detection Mix is prepared in TR-FRET Dilution Buffer. […] Read on fluorescence plate reader and analyze the data.

[2] = Solubility comparison; assay type: physicochemical

PIK3CA, sequence (P42336 whole entry): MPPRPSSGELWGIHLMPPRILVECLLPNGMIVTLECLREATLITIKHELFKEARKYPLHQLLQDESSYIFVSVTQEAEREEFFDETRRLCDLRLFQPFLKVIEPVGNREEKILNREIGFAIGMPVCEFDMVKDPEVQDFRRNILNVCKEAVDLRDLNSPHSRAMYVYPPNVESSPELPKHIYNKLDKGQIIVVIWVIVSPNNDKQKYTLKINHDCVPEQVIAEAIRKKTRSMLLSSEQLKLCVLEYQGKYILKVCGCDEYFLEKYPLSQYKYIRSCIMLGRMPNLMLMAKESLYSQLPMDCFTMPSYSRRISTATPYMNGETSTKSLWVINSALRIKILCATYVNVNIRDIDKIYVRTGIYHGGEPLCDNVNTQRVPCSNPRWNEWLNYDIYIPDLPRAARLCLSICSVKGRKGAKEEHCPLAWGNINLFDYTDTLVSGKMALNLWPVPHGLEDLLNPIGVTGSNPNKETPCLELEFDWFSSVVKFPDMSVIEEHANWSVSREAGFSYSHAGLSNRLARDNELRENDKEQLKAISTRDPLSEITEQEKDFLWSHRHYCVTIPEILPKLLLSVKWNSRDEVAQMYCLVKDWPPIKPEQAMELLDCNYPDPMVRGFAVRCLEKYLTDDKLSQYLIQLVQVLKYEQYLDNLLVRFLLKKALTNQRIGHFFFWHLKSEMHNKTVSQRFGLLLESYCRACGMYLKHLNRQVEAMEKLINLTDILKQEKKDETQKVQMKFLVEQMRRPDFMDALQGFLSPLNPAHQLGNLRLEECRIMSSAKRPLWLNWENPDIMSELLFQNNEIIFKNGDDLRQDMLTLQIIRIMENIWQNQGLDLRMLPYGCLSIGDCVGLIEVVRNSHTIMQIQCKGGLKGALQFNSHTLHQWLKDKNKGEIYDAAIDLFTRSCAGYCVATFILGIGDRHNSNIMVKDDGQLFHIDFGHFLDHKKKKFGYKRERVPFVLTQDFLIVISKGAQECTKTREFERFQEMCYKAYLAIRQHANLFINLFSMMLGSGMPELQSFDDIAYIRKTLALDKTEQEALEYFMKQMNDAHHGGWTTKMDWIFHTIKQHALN
PIK3CA, sequence (P27986 whole entry partner): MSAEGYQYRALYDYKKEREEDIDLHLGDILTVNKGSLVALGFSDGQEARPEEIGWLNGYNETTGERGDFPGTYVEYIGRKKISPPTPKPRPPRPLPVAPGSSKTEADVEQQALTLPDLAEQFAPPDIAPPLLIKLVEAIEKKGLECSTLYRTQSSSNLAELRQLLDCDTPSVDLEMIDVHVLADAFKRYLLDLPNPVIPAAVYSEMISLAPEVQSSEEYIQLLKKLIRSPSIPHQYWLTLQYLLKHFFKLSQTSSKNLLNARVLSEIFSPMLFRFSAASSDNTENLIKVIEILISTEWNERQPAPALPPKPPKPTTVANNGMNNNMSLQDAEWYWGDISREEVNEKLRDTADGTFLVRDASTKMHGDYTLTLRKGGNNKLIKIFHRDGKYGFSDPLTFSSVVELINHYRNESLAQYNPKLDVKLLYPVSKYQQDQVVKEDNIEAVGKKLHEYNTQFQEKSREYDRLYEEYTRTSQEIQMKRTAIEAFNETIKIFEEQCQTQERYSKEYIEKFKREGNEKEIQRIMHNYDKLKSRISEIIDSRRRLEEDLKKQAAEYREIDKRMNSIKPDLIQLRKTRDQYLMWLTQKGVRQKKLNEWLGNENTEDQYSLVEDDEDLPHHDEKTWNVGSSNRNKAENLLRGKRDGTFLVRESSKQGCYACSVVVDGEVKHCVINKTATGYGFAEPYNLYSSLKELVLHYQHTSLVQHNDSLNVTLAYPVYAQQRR

- inhibition of / potency against purified PIK3CA (in words) [1]: potent dual inhibition
- solubility (comparison) [2]: significantly more soluble than MOL-153
SMILES: CS(=O)(=O)Nc1cncc(-c2ccc3ncnc(Nc4cccc(Cl)c4)c3c2)c1 [MOL-162, N-(5-(4-((3-chlorophenyl)amino)quinazolin-6-yl)pyridin-3-yl)methanesulfonamide]
